Experimental findings from PMC3119039 (2011) are described below.

The target in this experiment is Cdk2^as (Homo sapiens, UniProt P24941, F80G). Kind of experiment: histone H1 kinase assay with [γ-32P]ATP, purified Cdk2/cyclin A. The format is biochemical.

The IC50 is the point on the concentration scale where inhibition reaches its midpoint. A higher IC50 goes with lower potency. In the case of `Cc1cccc(Cc2nn(C(C)(C)C)c3ncnc(N)c23)c1` [3-MB-PP1], the IC50 is about 3 nM.
